Several values for one entry are separate records, joined by “and”; a condition that tells them apart may be missing. Equal values may be shown once. Read-outs that look alike come from different tables or passages of the source.
Legend:
[1] = MALDI imaging and penetration analysis in centrally necrotizing granulomas; details: for BTZ-043 distribution in granulomas by MALDI imaging: IL-13tg mice
Mtb = assay: Lesional efficacy: LCM of necrotic core and Mtb 16S rRNA molecular bacterial load assay (MBLA); format: in vivo, Mycobacterium tuberculosis; details: for CFU / mm3 (MBLA): BTZ-043 [250 mg/kg], individual mice, 250 mg/kg
Mtb H37Rv [2] = assay: Prolonged BTZ-043 treatment of Mtb-infected IL-13tg mice (pulmonary CFU); format: in vivo, Mycobacterium tuberculosis
[3] = BALB/c, mouse, in vivo
Mtb H37Rv [4] = assay: Ziehl-Neelsen staining and histology of centrally necrotizing granulomas in IL-13tg mice; format: in vivo, Mycobacterium tuberculosis; details: 250 mg/kg/day 10 days, versus untreated
Protocol: Cryosections were fixed with 4% paraformaldehyde/PBS (24 h or 1 h for non-irradiated or irradiated sections, respectively) prior to staining with haematoxylin and eosin (HE), ZN or Heidenhain’s azan trichrome. For immunohistochemical analysis ZN stained cryosections were probed with rabbit polyclonal CD68 antibody (1:200, ab125212, Abcam, Cambridge, UK) which was detected with biotinylated goat anti-rabbit antibody (1:100, 111-065-144, Jackson Immunoresearch, Suffolk, UK)[13]. To visualize lipid droplets, irradiated cryosections were fixed (10% ice-cold formalin/PBS), washed with 60% 2-propanol, and incubated in Oil Red O solution (O0625, Sigma-Aldrich, Taufkirchen, Germany). After washing (60% 2-propanol and water), Gill’s haematoxylin was used for counterstaining. Images were acquired on a BX41 light microscope (Olympus, Hamburg, Germany) using cellSens imaging software (Olympus, Hamburg, Germany) or NIS-Elements software (Nikon, Badhoevedorp, The Netherlands). Post MALDI imaging HE staining was performed with the following protocol[40]: the matrix layer was washed off with MeOH. Rehydrated (2 min in 100%, 70%, 40% EtOH then 100% H2O) samples were submerged in Mayers haematoxylin solution for 12 min followed by 10 min submersion in Na2CO3 (1%) and rinsed with distilled water. Counterstaining was performed by 2-min submersion in 0.5% acidified eosin Y.

## C[C@H]1COC2(CCN(c3nc(=O)c4cc(C(F)(F)F)cc([N+](=O)[O-])c4s3)CC2)O1 [BTZ-043]
[1]; 0.5 h and 2 h after the last administration
  BTZ-043 distribution in granulomas by MALDI imaging: higher intensity in the layer of foamy macrophages than in the surrounding tissue and a low intensity in the necrotic center
[1]; 4 h after the last administration
  BTZ-043 distribution in granulomas by MALDI imaging: evenly distributed across the granuloma, including a full penetration of the necrotic center
[1]; 8 h post-dose
  BTZ-043 distribution in granulomas by MALDI imaging: still detected in the cellular compartment and the necrotic center of the lesion
[1]; IL-13tg mouse, 2 h post-dose, 10 µm pixel size
  BTZ-043 distribution in lung section by MALDI imaging: higher abundance in the granuloma areas
[1]; Left Granuloma, Distance 5 μm
  Mean intensity: 139.49
[1]; Left Granuloma, Distance 15 μm
  Mean intensity: 156.7
[1]; Left Granuloma, Distance 25 μm
  Mean intensity: 198.34
[1]; Left Granuloma, Distance 455 μm
  Mean intensity: 231.69
[1]; Left Granuloma, Distance 465 μm
  Mean intensity: 177.77
[1]; Left Granuloma, Distance 475 μm
  Mean intensity: 149.66
[1]; Left Granuloma, Distance 485 μm
  Mean intensity: 141.47
[1]; Left Granuloma, Distance 495 μm
  Mean intensity: 108.37
[1]; Left Granuloma, Distance -5 μm
  Mean intensity: 119.73
[1]; Left Granuloma, Distance -15 μm
  Mean intensity: 101.17
[1]; Left Granuloma, Distance -25 μm
  Mean intensity: 94.994
[1]; Left Granuloma, Distance -35 μm
  Mean intensity: 92.517
[1]; Left Granuloma, Distance -45 μm
  Mean intensity: 79.172
[1]; Left Granuloma, Distance -55 μm
  Mean intensity: 80.027
[1]; Left Granuloma, Distance -65 μm
  Mean intensity: 75.696
[1]; Left Granuloma, Distance -75 μm
  Mean intensity: 68.605
[1]; Left Granuloma, Distance -85 μm
  Mean intensity: 57.747
[1]; Left Granuloma, Distance -95 μm
  Mean intensity: 55.134
[1]; Left Granuloma, Distance -105 μm
  Mean intensity: 53.791
[1]; Left Granuloma, Distance -115 μm
  Mean intensity: 50.259
[1]; Left Granuloma, Distance -125 μm
  Mean intensity: 46.467
[1]; Left Granuloma, Distance -135 μm
  Mean intensity: 47.503
[1]; Left Granuloma, Distance -145 μm
  Mean intensity: 45.623
[1]; Left Granuloma, Distance -155 μm
  Mean intensity: 45.907
[1]; Left Granuloma, Distance -165 μm
  Mean intensity: 44.835
[1]; Left Granuloma, Distance -175 μm
  Mean intensity: 48.409
[1]; Left Granuloma, Distance -185 μm
  Mean intensity: 51.437
[1]; Left Granuloma, Distance -195 μm
  Mean intensity: 54.977
[1]; Left Granuloma, Distance -205 μm
  Mean intensity: 58.044
[1]; Left Granuloma, Distance -215 μm
  Mean intensity: 59.813
[1]; Left Granuloma, Distance -225 μm
  Mean intensity: 62.899
[1]; Left Granuloma, Distance -235 μm
  Mean intensity: 60.823
[1]; Left Granuloma, Distance -245 μm
  Mean intensity: 67.44
[1]; Left Granuloma, Distance -255 μm
  Mean intensity: 69.7
[1]; Left Granuloma, Distance -265 μm
  Mean intensity: 69.289
[1]; Left Granuloma, Distance -275 μm
  Mean intensity: 70.893
[1]; Left Granuloma, Distance -285 μm
  Mean intensity: 72.505
[1]; Left Granuloma, Distance -295 μm
  Mean intensity: 79.349
[1]; Left Granuloma, Distance -305 μm
  Mean intensity: 78.856
[1]; Left Granuloma, Distance -315 μm
  Mean intensity: 77.402
[1]; Left Granuloma, Distance -325 μm
  Mean intensity: 81.899
[1]; Left Granuloma, Distance -335 μm
  Mean intensity: 87.061
[1]; Left Granuloma, Distance -345 μm
  Mean intensity: 86.34
[1]; Left Granuloma, Distance -355 μm
  Mean intensity: 78.295
[1]; Left Granuloma, Distance -365 μm
  Mean intensity: 77.954
[1]; Left Granuloma, Distance -375 μm
  Mean intensity: 75.379
[1]; Left Granuloma, Distance -385 μm
  Mean intensity: 74.434
[1]; Left Granuloma, Distance -395 μm
  Mean intensity: 71.834
[1]; Left Granuloma, Distance -405 μm
  Mean intensity: 68.248
[1]; Left Granuloma, Distance -415 μm
  Mean intensity: 72.627
[1]; Left Granuloma, Distance -425 μm
  Mean intensity: 59.053
[1]; Left Granuloma, Distance -435 μm
  Mean intensity: 63.125
[1]; Left Granuloma, Distance -445 μm
  Mean intensity: 62.385
[1]; Right Granuloma, Distance 5 μm
  Mean intensity: 197.71
[1]; Right Granuloma, Distance 15 μm
  Mean intensity: 215.58
[1]; Right Granuloma, Distance -5 μm
  Mean intensity: 125.01
[1]; Right Granuloma, Distance -15 μm
  Mean intensity: 127.96
[1]; Right Granuloma, Distance -25 μm
  Mean intensity: 106.25
[1]; Right Granuloma, Distance -35 μm
  Mean intensity: 89.663
[1]; Right Granuloma, Distance -45 μm
  Mean intensity: 81.533
[1]; Right Granuloma, Distance -55 μm
  Mean intensity: 68.214
[1]; Right Granuloma, Distance -65 μm
  Mean intensity: 66.172
[1]; Right Granuloma, Distance -75 μm
  Mean intensity: 61.043
[1]; Right Granuloma, Distance -85 μm
  Mean intensity: 54.281
[1]; Right Granuloma, Distance -95 μm
  Mean intensity: 56.521
[1]; Right Granuloma, Distance -105 μm
  Mean intensity: 53.591
[1]; Right Granuloma, Distance -115 μm
  Mean intensity: 52.38
[1]; Right Granuloma, Distance -125 μm
  Mean intensity: 54.234
[1]; Right Granuloma, Distance -135 μm
  Mean intensity: 48.899
[1]; Right Granuloma, Distance -145 μm
  Mean intensity: 60.041
[1]; Right Granuloma, Distance -155 μm
  Mean intensity: 59.51
[1]; Right Granuloma, Distance -165 μm
  Mean intensity: 58.931
[1]; Right Granuloma, Distance -175 μm
  Mean intensity: 63.443
[1]; Right Granuloma, Distance -185 μm
  Mean intensity: 66.482
[1]; Right Granuloma, Distance -195 μm
  Mean intensity: 69.634
[1]; Right Granuloma, Distance -205 μm
  Mean intensity: 66.172
[1]; Right Granuloma, Distance -215 μm
  Mean intensity: 74.546
[1]; Right Granuloma, Distance -225 μm
  Mean intensity: 72.092
[1]; Right Granuloma, Distance -235 μm
  Mean intensity: 66.755
[1]; Right Granuloma, Distance -245 μm
  Mean intensity: 74.961
[1]; Right Granuloma, Distance -255 μm
  Mean intensity: 64.422
[1]; Right Granuloma, Distance -265 μm
  Mean intensity: 67.123
[1]; Right Granuloma, Distance -275 μm
  Mean intensity: 62.093
[1]; Right Granuloma, Distance -285 μm
  Mean intensity: 63.383
[1]; Right Granuloma, Distance -295 μm
  Mean intensity: 60.578
[1]; Right Granuloma, Distance -305 μm
  Mean intensity: 57.529
[1]; Right Granuloma, Distance -315 μm
  Mean intensity: 54.535
[1]; Right Granuloma, Distance -325 μm
  Mean intensity: 51.043
[1]; Right Granuloma, Distance -335 μm
  Mean intensity: 51.438
[1]; Right Granuloma, Distance -345 μm
  Mean intensity: 52.76
[1]; Right Granuloma, Distance -355 μm
  Mean intensity: 52.538
[1]; Right Granuloma, Distance -365 μm
  Mean intensity: 48.918
[1]; Right Granuloma, Distance -375 μm
  Mean intensity: 51.113
[1]; Right Granuloma, Distance -385 μm
  Mean intensity: 46.016
[1]; Right Granuloma, Distance -395 μm
  Mean intensity: 55.943
[1]; Right Granuloma, Distance -405 μm
  Mean intensity: 55.946
[1]; Right Granuloma, Distance -415 μm
  Mean intensity: 56.244
[1]; Right Granuloma, Distance -425 μm
  Mean intensity: 54.068
[1]; Right Granuloma, Distance -435 μm
  Mean intensity: 59.943
[1]; Right Granuloma, Distance -445 μm
  Mean intensity: 57.116
Mtb; 2 weeks of therapy
  CFU / mm3 (MBLA): 322664 CFU / mm3 and 2329437 CFU / mm3
Mtb; 4-6 weeks of therapy
  CFU / mm3 (MBLA): 228171 CFU / mm3 and 91947 CFU / mm3 and 205657 CFU / mm3
Mtb; IL-13tg mice, 250 mg/kg 5 times a week, 2 weeks of treatment
  Mtb 16S rRNA expression in the necrotic center compared to the vehicle group: decreased
Mtb; IL-13tg mice, 250 mg/kg 5 times a week, further course of therapy (4 to 6 weeks)
  bacterial load in the necrotic center: strongly reduced
Mtb; IL-13tg mice, LCM-isolated necrotic areas
  reduction of bacterial burden in necrotic areas of granulomas (Mtb 16S rRNA): 2 log10
Mtb H37Rv [2]; BTZ-043 [250 mg/kg], 4-6 weeks of therapy, individual mice, female and male, 250 mg/kg
  pulmonary CFU / mouse: 823500 CFU / mouse and 616966 CFU / mouse and 3482791 CFU / mouse and 4043721 CFU / mouse and 7632000 CFU / mouse
Mtb H37Rv [2]; IL-13tg mice, 250 mg/kg 5 times a week, prolonged therapy (4 to 6 weeks)
  reduction of the pulmonary bacterial burden compared to the vehicle group: more than 2 log10 CFU
[3]
  AUC at which BTZ-043total exposure reaches saturation: ~30,000 h·ng/mL
  Cmax at which BTZ-043total exposure reaches saturation: around 8000 ng/mL
  Tmax: 30 to 60 min
[3]; po, 2.5 mg/kg/day
  AUCinf: 666 ng·h/mL
  Cmax: 520 ng/mL
  Tmax: 30 min
[3]; po, 5 mg/kg/day
  AUCinf: 1,360 h·ng/mL
  Cmax: 1,050 ng/mL
  Tmax: 30 min
[3]; po, 50 mg/kg/day
  AUCinf: 14,700 h·ng/mL
  Cmax: 8070 ng/mL
  Tmax: 30 min
Caco-2 cell monolayers
  permeability classification: permeable drug
  transport mechanism indicated by efflux ratios: passive diffusion is dominant over active transport mechanisms
Mtb H37Rv [4]
  acid fast bacilli (AFB) within centrally necrotizing granulomas (ZN staining): most notable reduction in AFB within the layer of foamy macrophages

From article PMC11742723, “The clinical-stage drug BTZ-043 accumulates in murine tuberculosis lesions and efficiently acts against Mycobacterium tuberculosis” (Nature Communications, 2025)
